Results on 13 molecules are retold here after BindingDB's records for doi:10.1111/j.1476-5381.1981.tb10994.x (Royal Postgraduate Medical School, 1981).

The target in this experiment is Prostacyclin receptor (Homo sapiens, UniProt P43119).

Several values for one entry are separate records, joined by “and”; a condition that tells them apart may be missing. Equal values may be shown once. Bounds are passed on as bounds.

Chain of Prostacyclin receptor (P43119 whole entry): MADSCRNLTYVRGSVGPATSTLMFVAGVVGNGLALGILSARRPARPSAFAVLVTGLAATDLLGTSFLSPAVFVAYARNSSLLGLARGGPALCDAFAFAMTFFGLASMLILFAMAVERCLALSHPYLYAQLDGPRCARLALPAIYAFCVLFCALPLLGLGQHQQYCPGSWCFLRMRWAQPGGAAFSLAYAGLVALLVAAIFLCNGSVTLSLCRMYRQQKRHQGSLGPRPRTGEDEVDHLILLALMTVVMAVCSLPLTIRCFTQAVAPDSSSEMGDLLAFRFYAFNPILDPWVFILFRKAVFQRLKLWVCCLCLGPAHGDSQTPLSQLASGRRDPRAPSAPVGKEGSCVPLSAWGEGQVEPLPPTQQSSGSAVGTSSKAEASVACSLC

A word on the Ki: it is a dissociation constant, usually derived from enzyme kinetics or from competition with a known ligand. For `CCCCC[C@H](O)/C=C/[C@H]1[C@H](O)CC(=O)[C@@H]1C/C=C\CCCC(=O)O` [DINOPROSTONE], the Ki is greater than 10 µM.

On to `CCCCCC(=O)CC[C@H]1[C@H](O)CC(=O)[C@@H]1C/C=C\CCCC(=O)O` [13,14-DIHYDRO-15-KETO PROSTAGLANDIN E2], for which the Ki was 8.41 µM and > 10 µM.

The molecule `CCCCC[C@H](O)/C=C/C1[C@H](O)CC(=O)[C@H]1CCCCCCC(=O)O` (stereo partly drawn) [8-ISO PROSTAGLANDIN E1] displayed a Ki of 0.735 µM.

Turning to `CCCCC[C@H](O)/C=C/C1[C@H](O)C[C@H](O)[C@@H]1C/C=C\CCCC(=O)O` (stereo partly drawn) [(Z)-7-[(1R,3R,5S)-3,5-Dihydroxy-2-((E)-(S)-3-hydroxy-oct-1-enyl)-cyclopentyl]-hept-5-enoic acid], the Ki was greater than 10 µM.

In turn, `CCCCC[C@H](O)/C=C/[C@@H]1[C@H]2C/C(=C\CCCC(=O)O)C[C@H]2C[C@H]1O` displayed a Ki of 0.0166 µM.

Molecule `CCCCCC(O)C=CC1C(O)CC(O)C1CCCCCCC(=O)O` (stereo not drawn) [NSC_5280939] registered a Ki greater than 10 µM.

With `CCCCC[C@H](O)CC[C@H]1[C@H](O)CC(=O)[C@@H]1CCCCCCC(=O)O` [CAS_19313-28-1], the affinity, expressed as Ki, was 0.315 µM.

With `CCCCC[C@H](O)/C=C/[C@H]1[C@H](O)CC(=O)[C@@H]1C/C=C/CCCC(=O)O` [(E)-7-((1R,2R,3R)-3-hydroxy-2-((S,E)-3-hydroxyoct-1-enyl)-5-oxocyclopentyl)hept-5-enoic acid], the affinity, expressed as Ki, was 0.735 µM.

The molecule `CCCCC[C@@H](O)/C=C/[C@H]1[C@H](O)CC(=O)[C@@H]1C/C=C\CCCC(=O)O` had a Ki greater than 10 µM.

`CCCCCC(O)C=CC1C(O)CC2OC(CCCCC(=O)O)CC21` (stereo not drawn) [CAS_162981]: the Ki worked out at 7.35 µM.

Molecule `CCCCC[C@H](O)/C=C/[C@@H]1[C@@H](CC(=O)CCC(=O)O)[C@@H](O)C[C@H]1O` [2,3-dinor-6-ketoprostaglandin F1alpha] gave a Ki greater than 10 µM.

The molecule `O=C(O)CCC/C=C\C[C@H]1C(=O)C[C@@H](O)[C@@H]1/C=C/[C@@H](O)CCc1ccccc1` [17-PHENYL TRINOR PROSTAGLANDIN E2] had a Ki of 4.37 µM.

Regarding `CCCCC[C@@H](O)/C=C/[C@H]1[C@H](O)CC(=O)[C@@H]1CCCCCCC(=O)O`, the Ki came out at 0.137 µM.
